Drawing on patent US8003660B2, “Modulators of muscarinic receptors” (Vertex Pharmaceuticals Incorporated, priority 2006, dated 2011), this text covers EC50 and Emax for 17 compounds.

pEC50: −log10 of the molar value.

Assay type in all cases: cell-based
In one assay the target is T1, M3 muscarinic receptor (Homo sapiens, UniProt P20309).
T1 construct: expressed in transfected cells; host or cells: CHO (M3-CHO)
Nature of the assay: Functional mobilization of intracellular calcium (FLIPR) in CHO cells expressing M3. Conditions: for pEC50: CHO cells expressing M3, FLIPR calcium; for Emax: CHO, 100% = maximum response obtained with the Carbachol control, read-out: M3 Efficacy. Put shortly:
(§1)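 Calcium flux is read on FLIPR over 60 sec at 488/540 nm in muscarinic-receptor CHO lines. Antagonist mode adds carbachol at EC80 after 15 min compound preincubation or with simultaneous co-application. Agonist mode adds compound alone. Cells carry Fluo-3 or Calcium 3 dye in probenecid-containing pH 7.4 buffer, 0.5% DMSO final.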
A general note: A change in cytosolic calcium serves as a functional read-out for many receptors and channels.

Another assay addresses T2, M1 muscarinic receptor (Homo sapiens, UniProt P11229).
T2 construct: expressed in transfected cells; host or cells: CHO (M1-CHO)
T2 sequence (P11229 1-460): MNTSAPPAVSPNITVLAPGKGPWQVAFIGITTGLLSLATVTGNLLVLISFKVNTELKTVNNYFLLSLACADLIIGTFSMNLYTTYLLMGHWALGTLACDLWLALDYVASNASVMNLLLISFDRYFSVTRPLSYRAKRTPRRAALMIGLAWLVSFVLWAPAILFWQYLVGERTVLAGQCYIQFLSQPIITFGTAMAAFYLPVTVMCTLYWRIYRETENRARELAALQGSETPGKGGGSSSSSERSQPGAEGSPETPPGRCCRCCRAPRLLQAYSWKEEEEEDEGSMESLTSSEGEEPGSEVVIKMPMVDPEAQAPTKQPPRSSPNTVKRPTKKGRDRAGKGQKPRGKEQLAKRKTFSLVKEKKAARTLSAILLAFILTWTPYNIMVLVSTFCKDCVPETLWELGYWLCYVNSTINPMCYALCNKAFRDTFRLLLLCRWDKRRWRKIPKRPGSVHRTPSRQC
Nature of the assay: Functional mobilization of intracellular calcium (FLIPR) in CHO cells expressing M1. To be noted: for pEC50: CHO cells expressing M1, FLIPR calcium; for Emax: CHO, 100% = maximum response obtained with the Carbachol control, read-out: M1 Efficacy. A digest of the protocol:
as §1

The next assay has as its target T3, M2 muscarinic receptor (Homo sapiens, UniProt P08172).
T3 construct: expressed in transfected cells; host or cells: CHO (M2-CHO)
T3 sequence (P08172 1-466): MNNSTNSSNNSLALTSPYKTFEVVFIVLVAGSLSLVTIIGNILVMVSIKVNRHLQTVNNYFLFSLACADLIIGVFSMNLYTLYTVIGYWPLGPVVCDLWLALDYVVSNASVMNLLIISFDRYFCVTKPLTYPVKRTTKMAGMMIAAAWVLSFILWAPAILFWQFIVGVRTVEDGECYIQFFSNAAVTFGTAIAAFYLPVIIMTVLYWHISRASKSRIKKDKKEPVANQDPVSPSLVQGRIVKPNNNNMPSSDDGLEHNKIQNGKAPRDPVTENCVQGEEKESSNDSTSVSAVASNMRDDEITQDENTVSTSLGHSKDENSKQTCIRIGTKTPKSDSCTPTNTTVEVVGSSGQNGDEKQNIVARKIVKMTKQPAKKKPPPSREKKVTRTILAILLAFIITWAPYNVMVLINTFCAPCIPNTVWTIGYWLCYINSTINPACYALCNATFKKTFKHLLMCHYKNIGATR
Nature of the assay: Functional mobilization of intracellular calcium (FLIPR) in CHO cells expressing M2. To be noted: for pEC50: CHO cells expressing M2, FLIPR calcium; for Emax: CHO, 100% = maximum response obtained with the Carbachol control, read-out: M2 Efficacy. A digest of the protocol:
as §1

The next assay concerns the target T4, M4 muscarinic receptor (Homo sapiens, UniProt P08173).
T4 construct: expressed in transfected cells; host or cells: CHO (M4-CHO)
T4 sequence (P08173 1-479): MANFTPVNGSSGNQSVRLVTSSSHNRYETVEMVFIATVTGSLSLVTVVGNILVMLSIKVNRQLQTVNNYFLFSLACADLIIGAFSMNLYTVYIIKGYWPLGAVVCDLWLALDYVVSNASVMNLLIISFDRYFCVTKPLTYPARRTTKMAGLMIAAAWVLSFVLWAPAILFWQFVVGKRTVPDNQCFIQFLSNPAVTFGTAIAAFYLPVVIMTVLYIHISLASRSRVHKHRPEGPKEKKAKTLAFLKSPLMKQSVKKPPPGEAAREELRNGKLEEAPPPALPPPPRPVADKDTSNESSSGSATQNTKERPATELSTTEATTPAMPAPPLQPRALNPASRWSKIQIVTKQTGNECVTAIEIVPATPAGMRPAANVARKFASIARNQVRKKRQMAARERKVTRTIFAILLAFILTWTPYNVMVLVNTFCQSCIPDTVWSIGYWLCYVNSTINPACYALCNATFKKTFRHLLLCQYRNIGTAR
The assay is described as follows: Functional mobilization of intracellular calcium (FLIPR) in CHO cells expressing M4. Conditions: for pEC50: CHO cells expressing M4, FLIPR calcium; for Emax: CHO, 100% = maximum response obtained with the Carbachol control, read-out: M4 Efficacy. Put shortly: as §1

Usually pEC50 stands for the EC50 on a negative log10 scale, so that one unit is a factor of ten.

T1 sequence (P20309 whole entry): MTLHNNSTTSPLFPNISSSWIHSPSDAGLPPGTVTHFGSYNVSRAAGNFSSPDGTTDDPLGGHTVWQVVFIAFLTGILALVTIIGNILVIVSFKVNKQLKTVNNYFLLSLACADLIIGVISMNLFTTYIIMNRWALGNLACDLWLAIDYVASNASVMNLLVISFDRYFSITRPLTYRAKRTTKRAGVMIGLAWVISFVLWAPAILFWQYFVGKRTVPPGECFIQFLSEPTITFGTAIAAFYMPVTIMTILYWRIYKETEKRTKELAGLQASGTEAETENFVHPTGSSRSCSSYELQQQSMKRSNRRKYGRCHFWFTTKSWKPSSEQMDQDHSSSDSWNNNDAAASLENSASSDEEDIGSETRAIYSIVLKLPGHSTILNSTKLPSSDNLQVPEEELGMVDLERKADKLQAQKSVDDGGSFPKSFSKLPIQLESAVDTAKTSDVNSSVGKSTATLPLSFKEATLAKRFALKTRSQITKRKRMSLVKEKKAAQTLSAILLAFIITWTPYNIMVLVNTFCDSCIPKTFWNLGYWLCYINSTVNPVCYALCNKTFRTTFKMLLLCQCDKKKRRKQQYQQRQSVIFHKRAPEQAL

Take `CC(=O)N[C@H]1CCC2(CCN(CCC(C)CC(C)(C)C)CC2)c2ccccc21` (stereo partly shown) [compound 45]: the pEC50 was less than 5.30 on M3 muscarinic receptor, more than 5.70 at M1 muscarinic receptor, 5.30 to 5.70 on M2 muscarinic receptor and less than 5.30 on M4 muscarinic receptor. Besides, the Emax on M3 muscarinic receptor is 25 to 100%; at M1 muscarinic receptor, 25 to 100%; on M2 muscarinic receptor, less than 25%; on M4 muscarinic receptor, less than 25%.
As to `CC(=O)N[C@H](C)C(=O)N[C@H]1CCC2(CCN(CCC(C)(C)C)CC2)c2cc(F)ccc21` [compound 46], the pEC50 on M3 muscarinic receptor is less than 5.30; on M1 muscarinic receptor, more than 5.70; on M2 muscarinic receptor, more than 5.70; at M4 muscarinic receptor it was more than 5.70. Besides, the Emax is less than 25% on M3 muscarinic receptor, 25 to 100% at M1 muscarinic receptor, 25 to 100% on M2 muscarinic receptor and 25 to 100% at M4 muscarinic receptor.
In the case of `CC(=O)N(C(C)C)[C@H]1CCC2(CCN(CCC(C)C)CC2)c2ccccc21` [compound 47], the pEC50 was less than 5.30 on M3 muscarinic receptor, 5.30 to 5.70 on M1 muscarinic receptor, less than 5.30 at M2 muscarinic receptor and 5.30 to 5.70 on M4 muscarinic receptor. Besides, the Emax on M3 muscarinic receptor was less than 25%; at M1 muscarinic receptor it was 25 to 100%; at M2 muscarinic receptor, less than 25%; at M4 muscarinic receptor, 25 to 100%.
Regarding `CCCC(CCC)N1CCC2(CC[C@H](NC(=O)C3CC3)c3ccccc32)CC1` [compound 48], the negative-log EC50 (pEC50) at M3 muscarinic receptor, at M1 muscarinic receptor, at M2 muscarinic receptor and at M4 muscarinic receptor was less than 5.30 throughout. Besides, the Emax at M3 muscarinic receptor, at M1 muscarinic receptor, at M2 muscarinic receptor and on M4 muscarinic receptor was less than 25% each time.
Regarding `CSC(C)CCN1CCC2(CC[C@H](NC(C)=O)c3ccccc32)CC1` (stereo partly shown) [compound 49], the pEC50 was less than 5.30 on M3 muscarinic receptor, 5.30 to 5.70 at M1 muscarinic receptor, less than 5.30 at M2 muscarinic receptor and more than 5.70 on M4 muscarinic receptor. Moreover, the Emax is less than 25% at M3 muscarinic receptor, 25 to 100% at M1 muscarinic receptor, less than 25% on M2 muscarinic receptor and 25 to 100% on M4 muscarinic receptor.
Consider `COC(=O)CN(C(C)=O)[C@H]1CCC2(CCN(CCC(C)(C)C)CC2)c2ccccc21` [compound 50], for which the pEC50 at M3 muscarinic receptor is less than 5.30; on M1 muscarinic receptor, less than 5.30; at M2 muscarinic receptor it was less than 5.30; on M4 muscarinic receptor, more than 5.70. In addition, the Emax is less than 25% on M3 muscarinic receptor, 25 to 100% at M1 muscarinic receptor, less than 25% on M2 muscarinic receptor and 25 to 100% at M4 muscarinic receptor.
Consider `CN(C)C(=O)N(C)[C@H]1CCC2(CCN(CCC(C)(C)C)CC2)c2ccccc21` [compound 51], for which the pEC50 is less than 5.30 at M3 muscarinic receptor, more than 5.70 at M1 muscarinic receptor, less than 5.30 on M2 muscarinic receptor and more than 5.70 at M4 muscarinic receptor. Also, the Emax at M3 muscarinic receptor is less than 25%; at M1 muscarinic receptor it was 25 to 100%; at M2 muscarinic receptor, less than 25%; on M4 muscarinic receptor it was 25 to 100%.
As to `C[C@H](C(=O)N[C@H]1CCC2(CCN(CCC(C)(C)C)CC2)c2cc(F)ccc21)N1CCCC1=O` [compound 52], the pEC50 at M3 muscarinic receptor is less than 5.30; at M1 muscarinic receptor, more than 5.70; at M2 muscarinic receptor, more than 5.70; on M4 muscarinic receptor, more than 5.70. In addition, the Emax on M3 muscarinic receptor is less than 25%; at M1 muscarinic receptor, 25 to 100%; on M2 muscarinic receptor, less than 25%; on M4 muscarinic receptor it was 25 to 100%.
In the case of `CC(CC(C)(C)C)N1CCC2(CC[C@H](NC(=O)N(C)C)c3ccccc32)CC1` (stereo partly shown) [compound 53], the pEC50 was less than 5.30 on M3 muscarinic receptor, less than 5.30 at M1 muscarinic receptor, less than 5.30 at M2 muscarinic receptor and more than 5.70 at M4 muscarinic receptor. Besides, the Emax at M3 muscarinic receptor was less than 25%; on M1 muscarinic receptor, less than 25%; at M2 muscarinic receptor it was less than 25%; at M4 muscarinic receptor, 25 to 100%.
For `CCN(C(=O)CCC(C)=O)[C@H]1CCC2(CCN(CCC(C)(C)C)CC2)c2ccccc21` [compound 54], the pEC50 is less than 5.30 on M3 muscarinic receptor, more than 5.70 on M1 muscarinic receptor, less than 5.30 at M2 muscarinic receptor and more than 5.70 at M4 muscarinic receptor. For the same compound, the Emax at M3 muscarinic receptor is less than 25%; at M1 muscarinic receptor it was 25 to 100%; at M2 muscarinic receptor it was less than 25%; on M4 muscarinic receptor it was 25 to 100%.
In the case of `CC(C)(C)CCN1CCC2(CC[C@@H](NC(=O)C3CCCN(C(=O)C4CC4)C3)c3ccccc32)CC1` (stereo partly shown) [compound 55], the pEC50 on M3 muscarinic receptor was less than 5.30; at M1 muscarinic receptor, 5.30 to 5.70; at M2 muscarinic receptor it was more than 5.70; on M4 muscarinic receptor, more than 5.70. Moreover, the Emax on M3 muscarinic receptor is less than 25%; at M1 muscarinic receptor it was less than 25%; at M2 muscarinic receptor, less than 25%; on M4 muscarinic receptor, 25 to 100%.
As to `CC[C@@H](C)CN1CCC2(CC[C@H](NC(C)=O)c3ccccc32)CC1` [compound 56], the pEC50 on M3 muscarinic receptor was less than 5.30; on M1 muscarinic receptor, more than 5.70; at M2 muscarinic receptor it was more than 5.70; at M4 muscarinic receptor it was more than 5.70. Also, the Emax on M3 muscarinic receptor was less than 25%; at M1 muscarinic receptor, 25 to 100%; on M2 muscarinic receptor, 25 to 100%; on M4 muscarinic receptor it was 25 to 100%.
`CC(C)(C)CCN1CCC2(CC[C@H](N3CCCCC3=O)c3ccccc32)CC1` [compound 57]: the pEC50 at M3 muscarinic receptor was less than 5.30; on M1 muscarinic receptor, 5.30 to 5.70; at M2 muscarinic receptor, less than 5.30; on M4 muscarinic receptor, more than 5.70. The Emax was less than 25% on M3 muscarinic receptor, 25 to 100% at M1 muscarinic receptor, less than 25% on M2 muscarinic receptor and 25 to 100% on M4 muscarinic receptor.
With `Cn1cc(C(=O)N[C@H]2CCC3(CCN(CCC(C)(C)C)CC3)c3ccccc32)cn1` [compound 58], the pEC50 was less than 5.30 on M3 muscarinic receptor, more than 5.70 at M1 muscarinic receptor, more than 5.70 at M2 muscarinic receptor and more than 5.70 at M4 muscarinic receptor. The Emax on M3 muscarinic receptor is less than 25%; on M1 muscarinic receptor it was 25 to 100%; on M2 muscarinic receptor, 25 to 100%; on M4 muscarinic receptor, 25 to 100%.
Regarding `CC(=O)N1CCCC(C(=O)N[C@H]2CCC3(CCN(CCC(C)(C)C)CC3)c3cc(F)ccc32)C1` (stereo partly shown) [compound 59], the pEC50 at M3 muscarinic receptor was less than 5.30; on M1 muscarinic receptor, more than 5.70; at M2 muscarinic receptor, 5.30 to 5.70; at M4 muscarinic receptor, more than 5.70. Besides, the Emax is less than 25% at M3 muscarinic receptor, 25 to 100% on M1 muscarinic receptor, less than 25% at M2 muscarinic receptor and 25 to 100% at M4 muscarinic receptor.
Regarding `CC(=O)N1CCCC1C(=O)N[C@H]1CCC2(CCN(CCC(C)(C)C)CC2)c2ccccc21` (stereo partly shown) [compound 60], the pEC50 at M3 muscarinic receptor is less than 5.30; on M1 muscarinic receptor it was more than 5.70; on M2 muscarinic receptor, less than 5.30; on M4 muscarinic receptor, more than 5.70. Further, the Emax is less than 25% on M3 muscarinic receptor, 25 to 100% at M1 muscarinic receptor, less than 25% on M2 muscarinic receptor and 25 to 100% at M4 muscarinic receptor.
For the compound `CCC(=O)N[C@@H]1CCC2(CCN(CCC(C)(C)C)CC2)c2ccccc21` [compound 62], the pEC50 at M3 muscarinic receptor is less than 5.30; at M1 muscarinic receptor, less than 5.30; at M2 muscarinic receptor, less than 5.30; at M4 muscarinic receptor, more than 5.70. The Emax at M3 muscarinic receptor is less than 25%; at M1 muscarinic receptor, less than 25%; on M2 muscarinic receptor it was less than 25%; at M4 muscarinic receptor, 25 to 100%.
